One series is described as follows: Rough solubility test. Type of series: physicochemical. The following applies: water, thermodynamic from solid. The protocol:
2.0 mg of a free base and 2.0 mg of polymorph forms B, F, P, J and O are respectively taken and placed in 3.0 mL glass bottles. Then the solvent methanol is added step by step, and ultrasound is performed to observe whether the sample is completely dissolved. If the sample is still not completely dissolved after 2.0 mL of solvent is added, the test is stopped to measure the rough solubility of the free base, polymorph forms B, F, P, J and O in methanol respectively.
Using the same method, the rough solubility of the free base, polymorph forms B, P, F, J and O in other organic solvents or water listed in Table 6 are determined respectively.

Series [1] is described as follows: Relative bioavailability test. Particulars: rat, in vivo, po. The format is in vivo, SPF-grade SD rats. The protocol:
HPLC-MS/MS method is used to detect the blood drug concentration of target drugs in SPF-grade SD rats, and the relative bioavailability of 0.5% CMC-Na suspension of a free base and 0.5% CMC-Na solution of a polymorph form P are calculated and compared.
60.46 mg of a free base is accurately weighed and placed into a 15 mL centrifuge tube, 12 mL of 0.5% CMC-Na solution is measured and added into the centrifuge tube with a measuring cylinder, vortexed for 5 min, and ultrasonically dispersed for 15 min to obtain 0.5% CMC-Na suspension of free base with a concentration of 5.04 mg/ml, which is currently formulated when using and vibrated at any time during administration.
60.05 mg of a polymorph form P is accurately weighed and placed into a 15 mL centrifuge tube, 12 mL of 0.5% CMC-Na solution is measured and added into the centrifuge tube with a measuring cylinder, vortexed for 5 min, and ultrasonically dispersed for 15 min to obtain 0.5% CMC-Na solution of 5.00 mg/mL polymorph form P, which is currently formulated when using.
Twelve SPF-grade SD rats are selected and randomly divided into a free base group and a polymorph form P group with 6 rats in each group (both male and female). Animals are fasted for 12 h but have free access to water. Weighing is performed and, the administration volume of each rat is calculated according to the animal weight, so that the administration dose is 20 mg/kg·bw. During administration, the drugs are each administrated by gavage, and 0.5% CMC-Na suspension/solution of the above two target drugs are extracted by 2 mL syringe respectively. The gavage needle is inserted into the stomach from the corner of the rat's mouth and pushed the solution thereto.
Blood is collected from the fundus venous plexus of rats at 0.2 mL before (0 h) and 0.5, 1, 2, 4, 6, 8, 12 and 24 h after administration, anticoagulated with 300 IU/mL heparin (1:20) and centrifuged (3000 r/min) for 15 min. After plasma separation, the blood drug concentration of the target drug is determined by HPLC-MS/MS.
Referring to the above-mentioned bioavailability test of the polymorph form P, the bioavailability tests of polymorph forms F, O, B and J are conducted respectively. Different from the bioavailability test of the polymorph form P, rats are given 0.5% CMC-Na solution of the polymorph form F, O, B or J by gavage respectively. Other operations are the same as the above bioavailability test.

The nature of series [2]: Dynamic moisture adsorption. Type of series: physicochemical.
Series [3] is described as follows: Stability test: physical stability by XRPD under four environmental conditions. The following applies: for Crystal form, after nitrogen purging at 60° C. for 2 h / Crystal form, after 40° C./75% RH for one week / Crystal form, after drying at 60 ° C. overnight / Crystal form, after nitrogen purging overnight at room: XRPD; for Crystal form, after nitrogen purging at 60° C. for 2 h / Crystal form, after drying at 60 ° C. overnight / Crystal form, after nitrogen purging overnight at room: dihydrochloride; for Physical stability after standing under the four conditions: conditions 1 to 4; for Crystal form, after 40° C./75% RH for one week / Crystal form, after drying at 60 ° C. overnight: open bottle; for Crystal form, after nitrogen purging overnight at room: room temperature. The format is physicochemical. The protocol: The physical stability of polymorph forms P, F and J are studied under the following four different environmental conditions.
10 mg to 15 mg of polymorph forms P, F and J are each weighed and placed in a 1.5 mL glass bottle, and the glass bottle is placed open for one week in a constant temperature and humidity box under the conditions of 40° C. and 75% RH, and then XRPD tests are carried out on the polymorph forms P, F and J to determine whether the crystal forms of the samples change. FIGS. 11 to 13 are XRPD comparative patterns of polymorph forms P, F and J before and after one week of storage at 40° C. and 75% RH, respectively.
10 mg to 15 mg of polymorph forms P, F and J are each weighed and placed in a 1.5 mL glass bottle, and the glass bottle is placed open overnight in a constant temperature drying oven under the condition of 60° C. Then XRPD test is carried out on the polymorph forms P, F and J to determine whether the crystal forms of the samples change. FIGS. 14 to 16 are XRPD comparative patterns of the polymorph forms P, F and J before and after being placed overnight under a drying condition of 60° C., respectively.
10 mg to 15 mg of polymorph forms P, F and J are each weighed and placed in a 1.5 mL glass bottle, and nitrogen is purged for 2 h under the condition of 60° C. in a nitrogen blower, and then XRPD tests are carried out on the polymorph forms P, F and J to determine whether the crystal forms of the samples change. FIGS. 17 to 19 are XRPD comparative patterns of the polymorph forms P, F and J before and after nitrogen purging for 2 h at 60° C., respectively.
10 mg to 15 mg of polymorph forms P, F and J are each weighed and placed in a 3 mL glass bottle, nitrogen is blown overnight at room temperature in a nitrogen blower, and then XRPD tests are carried out on the polymorph forms P, F and J to determine whether the crystal forms of the samples change. FIGS. 20 to 22 are XRPD comparative patterns of the polymorph forms P, F and J before and after nitrogen purging overnight at room temperature, respectively.
Judging from XRPD comparative patterns of various polymorph forms, the physical stability properties of the polymorph forms P, F and J are obtained, and the results are shown in Table 8.

Where a name gives a salt, the structure may show the parent alone.

Molecule `CC1CCN(C(=O)c2ccc([C@H](c3cccc(O)c3)N3C[C@@H](C)N(Cc4cccc(F)c4)C[C@@H]3C)cc2)CC1` [Polymorph form B, (4-((R)-((2S,5R)-4-(3-fluorobenzyl)-(2,5-dimethylpiperazine-1-yl)(3-hydroxyphenyl)methyl)phenyl)(4-methylpiperidine-1-yl)methanone dihydrochloride] returned a Solubility in the series “Rough solubility test” of 6400 to 7200 µg/mL. The “bioavailability compared with free base” value in series [1] is listed as “better bioavailability than free base”. Besides, in series [2], the “Crystal form change under dynamic moisture adsorption” value is listed as “change into amorphous”.
`CC1CCN(C(=O)c2ccc([C@H](c3cccc(O)c3)N3C[C@@H](C)N(Cc4cccc(F)c4)C[C@@H]3C)cc2)CC1` [Polymorph form F, (4-((R)-((2S,5R)-4-(3-fluorobenzyl)-(2,5-dimethylpiperazine-1-yl)(3-hydroxyphenyl)methyl)phenyl)(4-methylpiperidine-1-yl)methanone dihydrochloride]: in series [3], the “Crystal form, after nitrogen purging at 60° C. for 2 h” value is recorded as “invariability”; the “Physical stability after standing under the four conditions” value is given as “good stability”; the “Crystal form, after 40° C./75% RH for one week” value was “invariability”; the “Crystal form, after drying at 60 ° C. overnight” value was “invariability”. Moreover, the “Crystal form, after nitrogen purging overnight at room” value in series [3] is on record as “invariability”. In addition, the “bioavailability compared with free base” value in series [1] is reported as “better bioavailability than free base”.
For the molecule `CC1CCN(C(=O)c2ccc([C@H](c3cccc(O)c3)N3C[C@@H](C)N(Cc4cccc(F)c4)C[C@@H]3C)cc2)CC1` [Polymorph form J, (4-((R)-((2S,5R)-4-(3-fluorobenzyl)-(2,5-dimethylpiperazine-1-yl)(3-hydroxyphenyl)methyl)phenyl)(4-methylpiperidine-1-yl)methanone dihydrochloride], the “Crystal form, after 40° C./75% RH for one week” value in series [3] was “invariability”. Moreover, the “bioavailability compared with free base” value in series [1] was “better bioavailability than free base”.
On to `CC1CCN(C(=O)c2ccc([C@H](c3cccc(O)c3)N3C[C@@H](C)N(Cc4cccc(F)c4)C[C@@H]3C)cc2)CC1` [Polymorph form O, (4-((R)-((2S,5R)-4-(3-fluorobenzyl)-(2,5-dimethylpiperazine-1-yl)(3-hydroxyphenyl)methyl)phenyl)(4-methylpiperidine-1-yl)methanone dihydrochloride], for which the “bioavailability compared with free base” value in series [1] was “better bioavailability than free base”. Besides, in series [2], the “Crystal form change under dynamic moisture adsorption” value is recorded as “change into amorphous”.
Turning to `CC1CCN(C(=O)c2ccc([C@H](c3cccc(O)c3)N3C[C@@H](C)N(Cc4cccc(F)c4)C[C@@H]3C)cc2)CC1` [Polymorph form P, (4-((R)-((2S,5R)-4-(3-fluorobenzyl)-(2,5-dimethylpiperazine-1-yl)(3-hydroxyphenyl)methyl)phenyl)(4-methylpiperidine-1-yl)methanone dihydrochloride], in series [3], the “Crystal form, after nitrogen purging at 60° C. for 2 h” value is given as “invariability”; the “Physical stability after standing under the four conditions” value was “good stability”; the “Crystal form, after 40° C./75% RH for one week” value is “invariability”; the “Crystal form, after drying at 60 ° C. overnight” value is listed as “invariability”. In addition, the “Crystal form, after nitrogen purging overnight at room” value in series [3] is on record as “invariability”. In series [1] (both sexes, SD, 20 mg/kg), the AUC(0-t) worked out at 584 ng·h/mL, the Cmax came to 98.1 ± 25.2 ng/mL, the Tmax came out at 1.3 ± 0.5 h and the bioavailability worked out at 202%. The molecule further yielded a t1/2z in series [1] (both, SD, 20 mg/kg) of 2.5 ± 0.8 h.

A word on the Solubility: it is the dissolved amount per volume that the medium holds. High values mean much dissolved substance, low ones little dissolved substance. By AUC(0-t) is commonly meant exposure summed from dosing to a finite time, without extrapolation to infinity. A word on the Cmax: it is the highest concentration seen after dosing. As a reminder, the Tmax is the time from dosing to the highest level.

These data come from patent US10730851B2, “Polymorph of triaryldimethylpiperazine dihydrochloride and preparation method and application thereof” (priority 2016, dated 2020).
